Assay results from ChEMBL document CHEMBL1147313, “Abrusosides A-D, four novel sweet-tasting triterpene glycosides from the leaves of Abrus precatorius” (J Nat Prod, 1989).

Tested on: Mus musculus
Assay: Acute toxicity in Swiss-Webster mouse at 1 g/kg, po
Format: organism-based
Settings: in vivo, 1000 mg/kg

SMILES	Activity
CC1=CC[C@@H]([C@@H](C)[C@H]2CC[C@@]3(C)[C@@H]4CC[C@H]5[C@](C)(C(=O)O)[C@@H](O[C@@H]6O[C@H](CO)[C@@H](O)[C@H](O)[C@H]6O)CC[C@@]56C[C@@]46CC[C@]23C)OC1=O [ABRUSOSIDE A]	Non-toxic
COC(=O)[C@H]1O[C@@H](O[C@H]2[C@H](O[C@H]3CC[C@]45C[C@]46CC[C@]4(C)[C@@H]([C@H](C)[C@@H]7CC=C(C)C(=O)O7)CC[C@@]4(C)[C@@H]6CC[C@H]5[C@]3(C)C(=O)O)O[C@H](CO)[C@@H](O)[C@@H]2O)[C@H](O)[C@@H](O)[C@@H]1O [ABRUSOSIDE B]	Non-toxic
CC1=CC[C@@H]([C@@H](C)[C@H]2CC[C@@]3(C)[C@@H]4CC[C@H]5[C@](C)(C(=O)O)[C@@H](O[C@@H]6O[C@H](CO)[C@@H](O)[C@H](O)[C@H]6O[C@@H]6O[C@H](CO)[C@@H](O)[C@H](O)[C@H]6O)CC[C@@]56C[C@@]46CC[C@]23C)OC1=O [ABRUSOSIDE C]	Non-toxic
CC1=CC[C@@H]([C@@H](C)[C@H]2CC[C@@]3(C)[C@@H]4CC[C@H]5[C@](C)(C(=O)O)[C@@H](O[C@@H]6O[C@H](CO)[C@@H](O)[C@H](O)[C@H]6O[C@@H]6O[C@H](C(=O)O)[C@@H](O)[C@H](O)[C@H]6O)CC[C@@]56C[C@@]46CC[C@]23C)OC1=O [ABRUSOSIDE D]	Non-toxic
